The test system of one data set is HepG2-2.2.15 cells. Nature of the data set: Cell viability (dye uptake) in HBV assay. In kind it is cell-based. The settings on record: peptide 10 micrograms per ml. The procedure:
(§1) HepG2-2.2.15 cells were plated in 96-well microtiter plates. After 16-24 hours the confluent monolayer of HepG2-2.2.15 cells was washed and the medium was replaced with complete medium containing test peptide—10 micrograms per ml—in duplicate. Lamivudine (3TC) was used as the positive control, while media alone was added to the cells as a negative control (virus control). Three days later the culture medium was replaced with fresh medium containing the peptide. Six days following the initial administration of the peptide, the cell culture supernatants was collected, treated with pronase and DNAse and then used in a real-time quantitative TaqMan PCR assay. The PCR-amplified HBV DNA was detected in real-time by monitoring increases in fluorescence signals that result from the exonucleolytic degradation of a quenched fluorescence probe molecule that hybridizes to the amplified HBV DNA. For each PCR amplification, a standard curve was simultaneously generated using dilutions of purified HBV DNA. Antiviral activity was calculated from the reduction in HBV DNA levels (% virus control). A novel dye uptake assay was then employed to measure cell viability, which is used to calculate toxicity (% cell control).

The subject of the next data set is CEM-SS cells. Nature of the data set: Cytotoxicity (MTS cell viability) in HIV-1 experiments. The settings on record: peptide 10 micrograms per ml.
A further data set relates to HIV-1IIIB. Put plainly: HIV-1 antiviral assay (CPE reduction, MTS) in CEM-SS cells. To be noted: peptide 10 micrograms per ml, 6 days post-infection. In kind it is cell-based.
Data set [1] has as its system A549 cells. Put plainly: Propidium iodide cell cycle assay. In kind it is cell-based, human. The settings on record: 24 hours, peptide 10 micrograms per ml, FACS. The source says: Disregulation of the cell cycle components may lead to tumor formation.
In another data set the test system is MRSA. To be noted: 5 micrograms per ml.
Data set [2] relates to Human Peripheral Blood Mononuclear Cells (PBMC). Put plainly: T cell proliferation assay (PHA, 3H-thymidine). The settings on record: peptide 10 micrograms per ml, 3H-thymidine incorporation. It is filed as cell-based.
In another data set the test system is RAW 264.7 cells. Put plainly: Phagocytosis assay (Fluorescein-labeled Escherichia coli). The settings on record: peptide 10 micrograms per ml, flow cytometry. In kind it is cell-based, mouse.
The test system of data set [3] is A549 cells. Put plainly: Apoptosis prevention assay (C2 ceramide, Annexin-5). It is filed as cell-based, human. The settings on record: A549 cells pretreated 30 min, peptide 10 micrograms per ml.
The subject of data set [4] is A549 cells. Nature of the data set: Apoptosis induction assay (Annexin-5). To be noted: 24 hours. It is filed as cell-based, human.
A further data set deals with HUVEC. Put plainly: Endothelial tube formation assay. In kind it is cell-based, human. The settings on record: peptide 10 micrograms per ml, 20 hours, average tubule length. The source says:
Positive control was vehicle only.

The nature of data set [5]: in vitro. The settings on record: human, MRC-5 cells.
The subject of a further data set is spleen cells. Nature of the data set: Th1/Th2 cytokine profiling assay. In kind it is cell-based, Balb/c mice. The settings on record: Ovalbumin restimulation; peptide 10 micrograms per ml; 72 hours.
Data set [6] in a line: in vitro. To be noted: human, CEM-SS cells.
A further data set relates to Pseudomonas aeruginosa. It is filed as cell-based. The settings on record: 5 micrograms per ml.
A short description of data set [7]: Cell viability (dye uptake) in HBV assay. In kind it is cell-based. To be noted: human, HepG2-2.2.15 cells, peptide 10 micrograms per ml. The procedure:
as §1

Another data set deals with Streptococcus pneumoniae. In kind it is cell-based. The settings on record: 5 micrograms per ml.
The next data set relates to TNF alpha. Put plainly: TNF alpha production assay (LPS-stimulated macrophages, ELISA). It is filed as cell-based, human. To be noted: macrophages from PBMC, peptide 10 micrograms per ml, lipopolysaccharide 200 ng/ml, overnight. The source says: Not stimulated macrophages served as negative background control.
In the next data set the test system is HCMV strain AD169. Nature of the data set: HCMV plaque reduction assay in MRC-5 cells. To be noted: HCMV AD169 in MRC-5 cells; peptide 10 micrograms per ml; 7-10 days. For orientation: Plaque reduction counts the foci of infection that form in a cell layer.
The subject of data set [8] is Primary Human endothelial cells (HUVEC). Nature of the data set: Endothelial cell migration assay. In kind it is cell-based. To be noted: peptide 10 micrograms per ml, 22 hours.
The subject of data set [9] is Human Peripheral Blood Mononuclear Cells (PBMC). Put plainly: B cell proliferation assay (SAC plus Interleukin-2, 3H-thymidine). In kind it is cell-based. The settings on record: peptide 10 micrograms per ml, 3H-thymidine incorporation. Background: Uptake of a labelled nucleoside into DNA is a usual measure of proliferation.
Data set [10] has as its system hepatitis B virus (HBV) ayw strain. Nature of the data set: HBV experimental assay system (secreted HBV DNA, TaqMan PCR). In kind it is cell-based. The settings on record: peptide 10 micrograms per ml; six days; HBV DNA in supernatant. The procedure: HepG2-2.2.15 is a stable cell line containing the hepatitis B virus (HBV) ayw strain genome (ATCC Cat. No. CRL-11997). Antiviral compounds blocking any late step of viral replication such as transcription, translation, pregenome encapsidation, reverse transcription, particle assembly and release can be identified and characterized using this cell line.
as §1, with “Lamivudine (3TC) was used as the positive control, while media alone was added to the cells as a negative control (virus control).” left out, “A novel dye uptake assay was then employed to measure cell viability, which is used to calculate toxicity (% cell control).” left out
A general note: In qPCR the cycle at which signal appears reflects the starting amount.

The subject of the next data set is MRC-5 cells. To be noted: human, 6 days.

For the compound `Nc1ccn([C@@H]2CS[C@H](CO)O2)c(=O)n1` [3TC, Lamivudine, reference compound], the “% Cell viability” value with HepG2-2.2.15 cells is on record as 95.8%.
On to `Cc1cn([C@H]2C[C@H](N=[N+]=[N-])[C@@H](CO)O2)c(=O)[nH]c1=O` [AZT], for which, in the data set on CEM-SS cells, the “% Cell viability” value was 97%. The “% CPE reduction in HIV-1 infected CEM-SS cells” value (“% CPE reduction” for short) in the data set on HIV-1IIIB amounted to 99%.
Broadly, the % inhibition is the drop in the measured response relative to a control, in per cent. A higher % inhibition goes with a strong effect. By viability is commonly meant a read-out of living cells in per cent, often relative to untreated cells. A low value points to more harm to the cells. With `CC[C@H](C)[C@H](NC(=O)[C@H](CCC(N)=O)NC(=O)[C@H](Cc1c[nH]cn1)NC(=O)[C@H](C)NC(=O)[C@H](CC(C)C)NC(=O)[C@H](CCCCN)NC(=O)[C@H](CCC(N)=O)NC(=O)[C@@H](NC(=O)[C@@H](NC(=O)[C@@H]1CSSC[C@H](NC(=O)CNC(=O)[C@H](Cc2ccccc2)NC(=O)[C@H](CO)NC(=O)[C@H](CCCNC(=N)N)NC(=O)[C@H](CC(C)C)NC(=O)CNC(=O)[C@H](CCC(N)=O)NC(=O)[C@H](Cc2ccccc2)NC(=O)[C@H](CC(N)=O)NC(=O)[C@H](CC(N)=O)NC(=O)[C@H](CCSC)NC(=O)[C@H](CO)NC(=O)[C@H](CCC(N)=O)NC(=O)[C@H](CCCNC(=N)N)NC(=O)[C@@H](N)Cc2ccc(O)cc2)C(=O)N[C@@H](CCCNC(=N)N)C(=O)N[C@@H](Cc2ccccc2)C(=O)NCC(=O)N[C@@H]([C@@H](C)O)C(=O)N1)[C@@H](C)O)C(C)C)C(=O)N[C@@H](Cc1ccc(O)cc1)C(=O)N[C@@H](CCC(N)=O)C(=O)N[C@@H](Cc1ccccc1)C(=O)N[C@H](C(=O)N[C@@H](CC(=O)O)C(=O)N[C@@H](CCCCN)C(=O)N[C@@H](CC(=O)O)C(=O)N[C@@H](CCCCN)C(=O)N[C@@H](CC(=O)O)C(=O)N[C@@H](CC(N)=O)C(=O)N[C@H](C(=O)N[C@@H](C)C(=O)N1CCC[C@H]1C(=O)N[C@@H](CCCNC(=N)N)C(=O)N[C@@H](CO)C(=O)N[C@@H](CCCCN)C(=O)N[C@H](C(=O)N[C@@H](CO)C(=O)N1CCC[C@H]1C(=O)N[C@@H](CCC(N)=O)C(=O)NCC(=O)N[C@@H](Cc1ccc(O)cc1)C(N)=O)[C@@H](C)CC)C(C)C)[C@@H](C)O` [Adrenomedullin], in the data set with A549 cells [1], the “Cell cycle analysis G0/G1” value was found to be 57.8, the “Cell cycle analysis G2/M” value is recorded as 9.5 and the “Cell cycle analysis S” value was determined as 32.7. Also, in the data set on MRSA, the “% inhibition” value stood at 0.0%. The “% of PHA induced control” value in data set [2] came out at 107.1%. In addition, the “% of control phagocytosis” value with RAW 264.7 cells is listed as 108.8%. Also, the “% prevention of ceramide induced apoptosis” value with A549 cells [3] is given as 0.0%. Besides, the “% of induction” value in the data set on A549 cells [4] came to 1.5%. Also, the “% inhibition of tube formation” value with HUVEC turned out to be 26%. This compound also came in with a viability at 144 h in “in vitro [5]” of 100%. For the same compound, in the data set with spleen cells, the “IFNγ spleen cells; TH1 response (% of control)” value was 24.5 % of control, the “IL-2 spleen cells (% of control)” value is 0.0 % of control, the “IL-4 spleen cells; TH2 response (% of control)” value is 0.0 % of control and the “IL-5 spleen cells; TH2 response (% of control)” value is reported as 28.1 % of control. In the data set with spleen cells, the “TNF-a spleen cells; TH1 response (% of control)” value is listed as 66.7 % of control. In the data set “in vitro [6]”, this compound returned a viability at 10 micrograms per ml of 92.9%. In the data set with Pseudomonas aeruginosa, the “% inhibition” value was 0.0%. Further, the viability at 144 h, 10 micrograms per ml in data set [7] is 100%. Also, the “% inhibition” value with Streptococcus pneumoniae stood at 0.0%. The “% of LPS induction” value in the data set on TNF alpha worked out at 100.9%. The “% plaque reduction” value in the data set with HCMV strain AD169 was determined as 0.0%. Also, in [8], the “% inhibition of migration” value is −34%. Moreover, in [9], the “% of SAC/IL2 induced control” value came out at 111.0%. Besides, in the data set with HIV-1IIIB, the “% CPE reduction” value is 0.0%. Besides, the “% inhibition of HBV replication in HEP G2 cells” value in [10] is given as 0.0%.
Turning to `Nc1nc(O)c2ncn(COC(CO)CO)c2n1` [Ganciclovir, reference compound], in the data set with MRC-5 cells, the “% Cell viability” value was found to be 100%. In addition, in the data set on HCMV strain AD169, the “% plaque reduction” value was found to be 100%.
For the compound `CC(C)(C)NC(=O)[C@@H]1CN(Cc2cccnc2)CCN1C[C@@H](O)C[C@@H](Cc1ccccc1)C(=O)N[C@H]1c2ccccc2C[C@H]1O` [Indinavir, indinavir], the “% CPE reduction” value with HIV-1IIIB amounted to 100%.

For the origin of these results see patent publication US20100184676A1, “USE OF A PEPTIDE AS A THERAPEUTIC AGENT” (priority 2007, published 2010).
